The record followed here is US11267820B2, “Tricyclic fused pyridin-2-one derivatives and their use as BRD4 inhibitors” (JUBILANT BIOSYS LIMITED, priority 2015, dated 2022).

In this test the test system is AML cell line MV4-11. Briefly: Anticancer activity: Alamar Blue 3-day proliferation assay. The class given is cell-based. To be noted: Homo sapiens, MV4-11 cells, 72h, read-out: MV4-11 EC50_μM. The procedure:
The impact of the compounds on cancer cell proliferation was determined using the AML cell line MV4-11 (ATCC) in a 3-day proliferation assay. MV4-11 cells were maintained in RPMI supplemented with 10% FBS at 37° C., 5% CO2. For compound testing, MV4-11 cells were plated in a 96-well black bottom plate at a density of 15,000 cells/well in 100 μL culture media and incubated at 37° C. overnight. Compound dilution series were prepared in DMSO via a 3-fold serial dilution from 100 μM to 0.005 μM. The DMSO dilution series were then diluted with media, with the final compound concentrations added to the wells ranging from 10 μM to 0.0005 μM. […] The fluorescent readings from the Alamar Blue assay were normalized to the DMSO treated cells and analyzed using the GraphPad Prism software with siginoidal curve fitting to obtain EC50.
For orientation: The colour change of resazurin is a common sign of viable cells or microbes.

For `CCNC(=O)CC1N=C(c2ccc(Cl)cc2)c2cc(OC)ncc2-c2cn(C)c(=O)cc21` (racemic) [t, 2-(7-(4-chlorophenyl)-9-methoxy-2-methyl-3-oxo-3,5-dihydro-2H-dipyrido[4,3-c:3′,4′-e]azepin-5-yl)-N-ethylacetamide], the EC50 worked out at 17 nM.
For `CCNC(=O)CC1OC(c2ccc(Cl)cc2)c2c(sc(C)c2C)-c2cn(C)c(=O)cc21` (racemic) [bb, 2-(4-(4-chlorophenyl)-2,3,9-trimethyl-8-oxo-4,6,8,9-tetrahydrothieno[2′,3′:5,6]oxepino[4,3-c]pyridin-6-yl)-N-ethylacetamide], the EC50 is less than 0.5 nM.
As to `CCNC(=O)CC1N=C(CC2CC2)c2c(sc(C)c2C)-c2cn(C)c(=O)cc21` (racemic) [r, 2-(4-(cyclopropylmethyl)-2,3,9-trimethyl-8-oxo-8,9-dihydro-6H-pyrido[4,3-c]thieno[2,3-e]azepin-6-yl)-N-ethylacetamide], the EC50 turned out to be 157 nM.
The value for `CCNC(=O)CC1N=C(c2ccc(Cl)cc2)c2nc(C)sc2-c2cn(C)c(=O)cc21` (racemic) [m, 2-(4-(4-chlorophenyl)-2,9-dimethyl-8-oxo-8,9-dihydro-6H-pyrido[4,3-c]thiazolo[5,4-e]azepin-6-yl)-N-ethylacetamide] was 140 nM; that for `CCNC(=O)CC1OC(c2ccc(Cl)cc2)c2c(cnn2C)-c2cn(C)c(=O)cc21` (racemic) [ll, 2-(4-(4-chlorophenyl)-3,9-dimethyl-8-oxo-4,6,8,9-tetrahydro-3H-pyrazolo[4′,3′:5,6]oxepino[4,3-c]pyridin-6-yl)-N-ethylacetamide] was less than 0.5 nM; that for `CCOC(=O)CC1N=C(c2ccc(Cl)cc2)c2nc(C)sc2-c2cn(C)c(=O)cc21` (racemic) [l, Ethyl 2-(4-(4-chlorophenyl)-2,9-dimethyl-8-oxo-8,9-dihydro-6H-pyrido[4,3-c]thiazolo[5,4-e]azepin-6-yl)acetate] was 430 nM.
As to `CCOC(=O)CC1N=C(c2ccc(Cl)cc2)c2c(cnn2C)-c2cn(C)c(=O)cc21` (racemic) [w, Ethyl 2-(4-(4-chlorophenyl)-3,9-dimethyl-8-oxo-3,6,8,9-tetrahydropyrazolo[3,4-c]pyrido[3,4-e]azepin-6-yl)acetate], the EC50 was 26 nM.
